Experimental data published in PubChem BioAssay (NCI).
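Protocol summary: plate cells (96-well), add compound at 5 concentrations, incubate 48 h, interpolate endpoints linearly. TGI marks complete inhibition of growth.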

How the values were obtained:
Assay in all cases: DTP human tumour cell line panel, 48 h
A549 NSCLC = tested on: A549 NSCLC
M14 melanoma = tested on: M14 melanoma
HCT-116 colon = tested on: HCT-116 colon
786-0 renal = tested on: 786-0 renal
SK-MEL-5 melanoma = tested on: SK-MEL-5 melanoma
UACC-257 melanoma = tested on: UACC-257 melanoma
SK-OV-3 ovarian = tested on: SK-OV-3 ovarian
SF-539 CNS = tested on: SF-539 CNS
SK-MEL-28 melanoma = tested on: SK-MEL-28 melanoma
DLD-1 colon = tested on: DLD-1 colon
SNB-19 CNS = tested on: SNB-19 CNS
NCI-H226 lung = tested on: NCI-H226 lung
SN12C renal = tested on: SN12C renal
HT29 colon = tested on: HT29 colon
HL-60(TB) leukemia = tested on: HL-60(TB) leukemia
IGROV1 ovarian = tested on: IGROV1 ovarian
MOLT-4 leukemia = tested on: MOLT-4 leukemia
ACHN renal = tested on: ACHN renal
MALME-3M melanoma = tested on: MALME-3M melanoma
SNB-78 CNS = tested on: SNB-78 CNS
OVCAR-3 ovarian = tested on: OVCAR-3 ovarian
SNB-75 CNS = tested on: SNB-75 CNS
EKVX NSCLC = tested on: EKVX NSCLC
TK-10 renal = tested on: TK-10 renal
HOP-92 NSCLC = tested on: HOP-92 NSCLC
UACC-62 melanoma = tested on: UACC-62 melanoma
LOX IMVI melanoma = tested on: LOX IMVI melanoma
OVCAR-8 ovarian = tested on: OVCAR-8 ovarian
LXFL 529 NSCLC = tested on: LXFL 529 NSCLC
SF-268 CNS = tested on: SF-268 CNS
KM12 colon = tested on: KM12 colon
SW-620 colon = tested on: SW-620 colon
A498 renal = tested on: A498 renal
SK-MEL-2 melanoma = tested on: SK-MEL-2 melanoma
OVCAR-4 ovarian = tested on: OVCAR-4 ovarian
CCRF-CEM leukemia = tested on: CCRF-CEM leukemia
U251 CNS = tested on: U251 CNS
HCC-2998 colon = tested on: HCC-2998 colon
CAKI-1 renal = tested on: CAKI-1 renal
RXF 393 renal = tested on: RXF 393 renal
OVCAR-5 ovarian = tested on: OVCAR-5 ovarian
NCI-H23 lung = tested on: NCI-H23 lung
SF-295 CNS = tested on: SF-295 CNS
KM20L2 colon = tested on: KM20L2 colon
DMS 273 small cell lung = tested on: DMS 273 small cell lung
M19-MEL melanoma = tested on: M19-MEL melanoma
COLO 205 colon = tested on: COLO 205 colon
HOP-18 NSCLC = tested on: HOP-18 NSCLC
XF 498 CNS = tested on: XF 498 CNS
DMS 114 small cell lung = tested on: DMS 114 small cell lung
SR leukemia = tested on: SR leukemia
K-562 leukemia = tested on: K-562 leukemia
NCI-H522 lung = tested on: NCI-H522 lung
NCI-H460 lung = tested on: NCI-H460 lung
UO-31 renal = tested on: UO-31 renal
HOP-62 NSCLC = tested on: HOP-62 NSCLC
RXF-631 renal = tested on: RXF-631 renal
HCT-15 colon = tested on: HCT-15 colon
RPMI-8226 leukemia = tested on: RPMI-8226 leukemia

Measured: TGI

COC(=O)c1cccn1C(=O)n1cccc1
not listed: RXF-631 renal | HCT-15 colon | RPMI-8226 leukemia
> 100 µM: all other assays above

CC12CCC3(OCCO3)C(OC(=O)c3ccccc3)=C1CCC21OCCO1 (stereo not given)
not listed: SK-MEL-2 melanoma | NCI-H23 lung | XF 498 CNS | K-562 leukemia
> 100 µM: all other assays above

Cc1ccc(S(=O)(=O)NC2(C=O)CCCC3CCCCC32)cc1 (stereo not given)
not listed: HT29 colon | EKVX NSCLC | HOP-92 NSCLC | LOX IMVI melanoma | OVCAR-5 ovarian | NCI-H23 lung | SF-295 CNS | XF 498 CNS
> 100 µM: all other assays above

CC(C)N=C(N)NC#N
not listed: 786-0 renal | SK-MEL-5 melanoma | SK-MEL-28 melanoma | TK-10 renal | HOP-92 NSCLC | U251 CNS | RXF 393 renal | NCI-H23 lung | DMS 273 small cell lung | SR leukemia | RXF-631 renal
> 100 µM: all other assays above
